The text below walks through data of PubChem BioAssay AID1259407 (Chemical Carcinogenesis Research Information System (CCRIS), 2018).

This data set has as its system CCRIS mutagenicity, Ames/micronucleus/aberration tests. The data set can be described thus: CCRIS mutagenicity studies.
[1] abbreviates: Test System: AMES SALMONELLA TYPHIMURIUM, Strain/Indicator: TA100, Metabolic Activation: NONE, Method: PREINCUBATION
Setting [2] is: Test System: AMES SALMONELLA TYPHIMURIUM, Strain/Indicator: TA100, Metabolic Activation: RAT, LIVER, S-9, PCB, Method: PREINCUBATION
Setting [3] is: Test System: AMES SALMONELLA TYPHIMURIUM, Strain/Indicator: TA98, Metabolic Activation: NONE, Method: STANDARD PLATE.
[4] abbreviates: Test System: AMES SALMONELLA TYPHIMURIUM, Strain/Indicator: TA100, Metabolic Activation: NONE, Method: STANDARD PLATE.
Setting [5] is: Test System: MOUSE LYMPHOMA, Strain/Indicator: L5178Y (TK+/TK-), Metabolic Activation: RAT, LIVER, S-9, AROCLOR 1254, Method: SUSPENSION/PLATE.
The mark [6] stands for this setting: Test System: AMES SALMONELLA TYPHIMURIUM, Strain/Indicator: TA98, Metabolic Activation: RAT, LIVER, S-9, AROCLOR 1254, Method: STANDARD PLATE.
[7] abbreviates: Test System: AMES SALMONELLA TYPHIMURIUM, Strain/Indicator: TA100, Metabolic Activation: RAT, LIVER, S-9, AROCLOR 1254, Method: STANDARD PLATE.
The mark [8] stands for this setting: Test System: AMES SALMONELLA TYPHIMURIUM, Strain/Indicator: TA1535, Metabolic Activation: NONE, Method: STANDARD PLATE.
The mark [9] stands for this setting: Test System: AMES SALMONELLA TYPHIMURIUM, Strain/Indicator: TA1535, Metabolic Activation: RAT, LIVER, S-9, AROCLOR 1254, Method: STANDARD PLATE.
[10] abbreviates: Test System: AMES SALMONELLA TYPHIMURIUM, Strain/Indicator: TA1537, Metabolic Activation: NONE, Method: STANDARD PLATE.
Where [11] appears, read: Test System: AMES SALMONELLA TYPHIMURIUM, Strain/Indicator: TA1537, Metabolic Activation: RAT, LIVER, S-9, AROCLOR 1254, Method: STANDARD PLATE.
The mark [12] stands for this setting: Test System: AMES SALMONELLA TYPHIMURIUM, Strain/Indicator: TA1538, Metabolic Activation: NONE, Method: STANDARD PLATE.
Setting [13] is: Test System: AMES SALMONELLA TYPHIMURIUM, Strain/Indicator: TA1538, Metabolic Activation: RAT, LIVER, S-9, AROCLOR 1254, Method: STANDARD PLATE.
[14] abbreviates: Test System: AMES SALMONELLA TYPHIMURIUM, Strain/Indicator: TA98, Metabolic Activation: NONE, Method: PREINCUBATION

The structures appear in SMILES notation. Calls of active or inactive are those of the source. How the calls were made is not given here.

As for `COC(=O)[C@H](C)Cl`, the mutagenic call runs as follows: under setting [1], “inactive; negative”; under setting [2], “inactive; negative”.
Take `Nc1c(Oc2ccccc2)cc(O)c2c1C(=O)c1ccccc1C2=O`: the mutagenic call by setting is: (Test System: AMES SALMONELLA TYPHIMURIUM, Strain/Indicator: TA98, Metabolic Activation: HAMSTER, LIVER, S-9, AROCLOR 1254 (10%), Method: STANDARD PLATE) “active; positive”; under setting [3], “active; positive”; (Test System: AMES SALMONELLA TYPHIMURIUM, Strain/Indicator: TA98, Metabolic Activation: RAT, LIVER, S-9, AROCLOR 1254 (10%), Method: STANDARD PLATE) “active; positive”; (Test System: AMES SALMONELLA TYPHIMURIUM, Strain/Indicator: TA100, Metabolic Activation: HAMSTER, LIVER, S-9, AROCLOR 1254 (10%), Method: STANDARD PLATE) “inactive; negative”; under setting [4], “inactive; negative”; (Test System: AMES SALMONELLA TYPHIMURIUM, Strain/Indicator: TA100, Metabolic Activation: RAT, LIVER, S-9, AROCLOR 1254 (10%), Method: STANDARD PLATE) “inactive; negative”. The mutagenic call under setting [5] is “inactive; negative. reevaluation of results: negative”.
Regarding `Nc1ccc(N)c2c1C(=O)c1cccc([N+](=O)[O-])c1C2=O`, the mutagenic call is, setting by setting: under setting [3], “active; positive”; under setting [6], “active; positive”; under setting [4], “inactive; negative”; under setting [7], “inactive; negative”; under setting [8], “inactive; negative”; under setting [9], “inactive; negative”. Also, the mutagenic call by setting is: under setting [10], “active; positive”; under setting [11], “inactive; negative”; under setting [12], “active; positive”; under setting [13], “active; positive”; (Test System: AMES SALMONELLA TYPHIMURIUM, Strain/Indicator: TA1978, Metabolic Activation: NONE, Method: STANDARD PLATE) “inactive; negative”.
On to `CCC(=O)Nc1snc2ccc(C)cc12`, for which the mutagenic call under setting [4] was “inactive; negative”; the mutagenic call (Test System: AMES SALMONELLA TYPHIMURIUM, Strain/Indicator: TA100, Metabolic Activation: S-9, Method: STANDARD PLATE) is “inactive; negative”; the mutagenic call under setting [10] is “inactive; negative”; the mutagenic call (Test System: AMES SALMONELLA TYPHIMURIUM, Strain/Indicator: TA1537, Metabolic Activation: S-9, Method: STANDARD PLATE) is “inactive; negative”.
On to `O=NN(CCCl)C(=O)NCCO`, for which the mutagenic call under setting [8] was “active; positive”.
In the case of `COC(=O)c1cc(Cc2ccc(N)c(C(=O)OC)c2)ccc1N`, the mutagenic call is “inactive; negative” under setting [14]; “active; positive” (Test System: AMES SALMONELLA TYPHIMURIUM, Strain/Indicator: TA98, Metabolic Activation: RAT, LIVER, S-9, PCB, Method: PREINCUBATION); “inactive; negative” under setting [1]; “active; positive” under setting [2].
For `OC1CC=Cc2c1cc1ccc3cccc4ccc2c1c34` (stereo unspecified), the mutagenic call under setting [6] was “active; positive”.
On to `FCC1CO1` (stereo unspecified), for which the mutagenic call was “inactive; negative” (Test System: AMES SALMONELLA TYPHIMURIUM, Strain/Indicator: TA98, Metabolic Activation: HAMSTER, LIVER, S-9, AROCLOR 1254 (30%), Method: PREINCUBATION); “inactive; negative” under setting [14]; “inactive; negative” (Test System: AMES SALMONELLA TYPHIMURIUM, Strain/Indicator: TA98, Metabolic Activation: RAT, LIVER, S-9, AROCLOR 1254 (30%), Method: PREINCUBATION); “active; positive” (Test System: AMES SALMONELLA TYPHIMURIUM, Strain/Indicator: TA100, Metabolic Activation: HAMSTER, LIVER, S-9, AROCLOR 1254 (30%), Method: PREINCUBATION); “active; positive” under setting [1]; “active; positive” (Test System: AMES SALMONELLA TYPHIMURIUM, Strain/Indicator: TA100, Metabolic Activation: RAT, LIVER, S-9, AROCLOR 1254 (30%), Method: PREINCUBATION).
On to `O=C(O)CCc1ccccc1`, for which the mutagenic call (Test System: AMES SALMONELLA TYPHIMURIUM, Strain/Indicator: TA98, Metabolic Activation: HAMSTER, LIVER, S-9, AROCLOR 1254, Method: STANDARD PLATE) is “inactive; negative”; the mutagenic call under setting [3] was “inactive; negative”; the mutagenic call under setting [6] was “inactive; negative”; the mutagenic call (Test System: AMES SALMONELLA TYPHIMURIUM, Strain/Indicator: TA100, Metabolic Activation: HAMSTER, LIVER, S-9, AROCLOR 1254, Method: STANDARD PLATE) is “inactive; negative”; the mutagenic call under setting [4] was “inactive; negative”; the mutagenic call under setting [7] was “inactive; negative”. Further, the mutagenic call is “inactive; negative” (Test System: AMES SALMONELLA TYPHIMURIUM, Strain/Indicator: TA1535, Metabolic Activation: HAMSTER, LIVER, S-9, AROCLOR 1254, Method: STANDARD PLATE); “inactive; negative” under setting [8]; “inactive; negative” under setting [9]; “inactive; negative” (Test System: AMES SALMONELLA TYPHIMURIUM, Strain/Indicator: TA1537, Metabolic Activation: HAMSTER, LIVER, S-9, AROCLOR 1254, Method: STANDARD PLATE); “inactive; negative” under setting [10]; “inactive; negative” under setting [11]. Further, the mutagenic call runs as follows: (Test System: AMES SALMONELLA TYPHIMURIUM, Strain/Indicator: TA1538, Metabolic Activation: HAMSTER, LIVER, S-9, AROCLOR 1254, Method: STANDARD PLATE) “inactive; negative”; under setting [12], “inactive; negative”; under setting [13], “inactive; negative”; (Test System: MOUSE LYMPHOMA, Strain/Indicator: L5178Y (TK+/TK-), Metabolic Activation: NONE, Method: SUSPENSION/PLATE) “inactive; negative. reevaluation of results: negative”; under setting [5], “inactive; negative. reevaluation of results: negative”.
Regarding `O=NN1CCSC1[C@H](O)[C@@H](O)[C@@H](O)CO` (stereo partly specified), the mutagenic call reads like this: under setting [14], “inactive; negative”; under setting [3], “inactive; negative”; (Test System: AMES SALMONELLA TYPHIMURIUM, Strain/Indicator: TA98, Metabolic Activation: RAT, LIVER, S-9, AROCLOR 1254, Method: PREINCUBATION) “inactive; negative”; under setting [6], “inactive; negative”; under setting [1], “inactive; negative”; under setting [4], “inactive; negative”. Further, the mutagenic call by setting is: (Test System: AMES SALMONELLA TYPHIMURIUM, Strain/Indicator: TA100, Metabolic Activation: RAT, LIVER, S-9, AROCLOR 1254, Method: PREINCUBATION) “inactive; negative”; under setting [7], “inactive; negative”.
